Where two headings read alike, the source gives them in different places.
Columns and labels:
[1] = negative = satisfies at least one of (1) LLNA SI less than 3, (2) MSDS, (3) reference; cited from earlier work
[2] = cited from earlier work
[3] = test method: maximization method; cited from earlier work
Female mice = test: Skin sensitization test by LLNA (Local Lymph Node Assay) method, SI value; type: in vivo; settings: test substance 50.0 w/v % in acetone:olive oil 4:1, 25 μL/auricle, once/day × 3 days, SI less than 3 = negative
Experimental: In the (1), it is judged that a compound is negative in skin sensitization when the SI value of the compound is less than 3, as described in the journal of “Function and Materials”, September, 2005, volume 25, No. 9, on page 55. The lower the SI value is, the lower skin sensitization is.
The SI value was measured by a skin sensitization test by LLNA (Local Lymph Node Assay) method as described below.
α-Hexyl cinnamaldehyde (HCA, available from Wako Pure Chemical Industries, Ltd.) was used as the positive control substance.
A mixture liquid obtained by mixing acetone (available from Wako Pure Chemical Industries, Ltd.) and an olive oil (available from Fujimi Pharmaceutical Co., Ltd.) at a volume ratio (acetone:olive oil) of 4:1 was used as the medium. […]
Based on the body weights of the animals measured two days before sensitization was started, the animals were divided into two groups (4 mice/group) in a manner that the body weight of each individual would be within ±20% of the average body weight of the whole group according to a body weight stratified random sampling method. […]
About twenty four hours after the BrdU administration, the animals were euthanized, and the auricular lymph nodes were extracted. […] The average value and standard error of the weight of the auricular lymph nodes per group were calculated. […]

[4] = test method: OECD Test Guideline 406; cited from earlier work

CCC(Cc1ccc(C)cc1)(C(=O)c1ccc(N2CCOCC2)cc1)N(C)C (stereo not shown) [2-dimethylamino-2-(4-methylbenzyl)-1-(4-morpholin-4-yl-phenyl)butan-1-one]
Skin sensitization [1]: negative

C=C(C)C(=O)OC(C)(C)C [Example A2, t-butyl methacrylate]
Skin sensitization [1]: negative
Vapor pressure ([2]; 18.5° C.): 700 Pa
Skin sensitization evaluated according to the reference [3]: negative

C=C(C)C(=O)OCCCCC [Example A3, n-Pentyl methacrylate]
Skin sensitization [1]: negative
Vapor pressure ([2]; 25° C.): 69.1 Pa
Skin sensitization evaluated according to the reference [3]: negative

C=C(C)C(=O)OCCCCCC [Example A4, n-Hexyl methacrylate]
Skin sensitization [1]: negative
Vapor pressure ([2]; 20° C.): 34.7 Pa
Skin sensitization evaluated according to the reference [3]: negative

C=C(C)C(=O)OCC(CO)OC(=O)C(=C)C (stereo not shown) [Example B2, Glycerol dimethacrylate]
Skin sensitization [1]: negative
SI value (Stimulation Index) measured by LLNA test (Female mice): 1.2

C=C(C)C(=O)OCC(CC)(COC(=O)C(=C)C)COC(=O)C(=C)C [Example B6, Trimethylolpropane trimethacrylate]
SI value (Stimulation Index) measured by LLNA test (Female mice): 1.9

O=C(c1ccccc1)C1(O)CCCCC1 [Example C1, 1-Hydroxy-cyclohexyl phenyl ketone]
Skin sensitization [1]: negative
Skin sensitization evaluated according to the MSDS [4]: nothing

CCC(Cc1ccc(C)cc1)(C(=O)c1ccc(N2CCOCC2)cc1)N(C)C (stereo not shown) [Example C2, 2-Dimethylamino-2-(4-methylbenzyl)-1-(4-morpholin-4-yl-phenyl)butan-1-one]
Skin sensitization evaluated according to the MSDS [4]: nothing

CSc1ccc(C(=O)C(C)(C)N2CCOCC2)cc1 [Example C3, 2-[4-(Methylthio)benzoyl]-2-(4-morpholinyl)propane]
Skin sensitization evaluated according to the MSDS [4]: nothing

C=CC(=O)OCc1ccccc1 [benzyl acrylate, reference compound]
Skin sensitization [1]: positive
Vapor pressure ([2]; 25° C.): 9.7 Pa

Caprolactone-modified dipentaerythritolhexaacrylate [Example B5]
Skin sensitization [1]: negative

polyethylene glycol dimethacrylate
Skin sensitization [1]: negative

tricyclodecane dimethanol dimethacrylate
Skin sensitization [1]: negative
